# Reference: the supplement of paper PMC10011410
# ± gives the standard deviation of the averaged measurements.
# Experiments:
# U-2 OS [1] = assay: AUC of culture confluence over time (live-cell imaging) (AUC (confluence % x time)); higher = more confluent culture (less growth inhibition)
# Procedure: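 Live-cell Incucyte imaging of U-2 OS cells in F-12K medium. Compounds were tested mostly at 5, 10 and 20 uM, and cells were imaged every 4 h for up to 60 h. Value is the area under the curve of phase-contrast confluence over time.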
# U-2 OS [2] = assay: relative cell count vs DMSO (cell painting) (fraction of DMSO control); higher = more cells remaining (less cytotoxic); conditions: 24 h
# Procedure: (§1)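 Cell painting in U-2 OS cells (384-well, about 1,500 cells per well), compound exposure 24 h, usually six 2-fold concentrations from 20 to 0.625 uM (some compounds higher or lower). Relative cell count is the cell number per well relative to DMSO wells. Activity score is the Mahalanobis distance of the morphological profile from DMSO control wells. Mean of four technical replicate plates.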
# U-2 OS [3] = assay: cell painting activity score (Mahalanobis distance from DMSO wells); higher = stronger morphological phenotype; conditions: 24 h
# Procedure: as §1
Structure (SMILES),AUC of culture confluence over time (U-2 OS [1]; 5 µM),AUC of culture confluence over time (U-2 OS [1]; 10 µM),AUC of culture confluence over time (U-2 OS [1]; 20 µM),relative cell count (U-2 OS [2]; 0.625 µM),relative cell count (U-2 OS [2]; 1.25 µM),relative cell count (U-2 OS [2]; 2.5 µM),relative cell count (U-2 OS [2]; 5 µM),relative cell count (U-2 OS [2]; 10 µM),relative cell count (U-2 OS [2]; 20 µM),cell painting activity score (U-2 OS [3]; 0.625 µM),cell painting activity score (U-2 OS [3]; 1.25 µM),cell painting activity score (U-2 OS [3]; 2.5 µM),cell painting activity score (U-2 OS [3]; 5 µM),cell painting activity score (U-2 OS [3]; 10 µM),cell painting activity score (U-2 OS [3]; 20 µM),AUC of culture confluence over time (U-2 OS [1]; 1.25 µM),relative cell count (U-2 OS [2]; 0.019532 µM),relative cell count (U-2 OS [2]; 0.07812 µM),relative cell count (U-2 OS [2]; 0.3124 µM),cell painting activity score (U-2 OS [3]; 0.019532 µM),cell painting activity score (U-2 OS [3]; 0.07812 µM),cell painting activity score (U-2 OS [3]; 0.3124 µM)
N[C@@H](Cc1ccc(N(CCCl)CCCl)cc1)C(=O)O,34.2,33.1,30.4,0.959,0.939,0.879,0.883,0.733,0.723,3.56,5.26,5.71,6.03,8.71,9.32,,,,,,,
CC(C)=C[C@@H]1CO[C@]23C[C@]4(CO2)[C@H](CC[C@@H]2[C@@]5(C)CC[C@H](O[C@@H]6OC[C@H](O)[C@H](O[C@@H]7O[C@H](CO)[C@@H](O)[C@H](O)[C@H]7O)[C@H]6O[C@@H]6O[C@@H](CO)[C@H](O)[C@H]6O)C(C)(C)[C@@H]5CC[C@]24C)[C@H]3[C@@]1(C)O,44.4,15.8,23.9,0.956,0.977,1.02,0.762,0.393,0.0257,4.86,4.19,6.77,9.86,22.5,29.1,,,,,,,
O=C(OC[C@H]1O[C@@H](OC(=O)c2cc(O)c(O)c(OC(=O)c3cc(O)c(O)c(O)c3)c2)[C@H](OC(=O)c2cc(O)c(O)c(OC(=O)c3cc(O)c(O)c(O)c3)c2)[C@@H](OC(=O)c2cc(O)c(O)c(OC(=O)c3cc(O)c(O)c(O)c3)c2)[C@@H]1OC(=O)c1cc(O)c(O)c(OC(=O)c2cc(O)c(O)c(O)c2)c1)c1cc(O)c(O)c(OC(=O)c2cc(O)c(O)c(O)c2)c1,48.2,48.5,27.9,1.02,1.02,1.02,0.945,0.945,0.697,4.17,4.59,6.15,5.91,6.39,8.09,,,,,,,
CC(=O)O[C@H]1C(=O)[C@@]2(C)[C@H]([C@H](OC(=O)c3ccccc3)[C@]3(O)C[C@H](OC(=O)[C@H](O)[C@@H](NC(=O)c4ccccc4)c4ccccc4)C(C)=C1C3(C)C)[C@]1(OC(C)=O)CO[C@@H]1C[C@@H]2O,17.4,,20,,0.253 ± 0.051,,0.222 ± 0.03,,0.351 ± 0.024,,24.9 ± 1.2,,23.3 ± 0.75,,24.1 ± 0.87,17,0.939 ± 0.12,0.744 ± 0.19,0.413 ± 0.16,16.9 ± 1.5,19 ± 0.57,22.1 ± 1.1
O=c1c(O)c(-c2ccc(O)c(O)c2)oc2cc(O)cc(O)c12,46.5,53.6,50.6,0.954,0.982,0.939,0.962,0.892,0.814,4.42,3.56,5.15,6.18,8.67,12.4,,,,,,,
NC(=O)c1ccc(I)c([N+](=O)[O-])c1,56.5,53.5,50.1,1.01,1.07,1.05,1.04,1.06,1.07,3.13,3.07,2.86,3.68,3.09,3.55,,,,,,,
CC1=C2C(=CO[C@H](C)[C@H]2C)C(=O)C(C(=O)O)=C1O,48.9,45.6,42,0.985,0.942,0.951,0.893,0.935,0.793,4.49,5.94,4.77,8.7,6.33,10.3,,,,,,,
